# T1: Solute carrier organic anion transporter family member 1B1 (Homo sapiens, UniProt Q9Y6L6)
# T1 sequence (Q9Y6L6 whole entry): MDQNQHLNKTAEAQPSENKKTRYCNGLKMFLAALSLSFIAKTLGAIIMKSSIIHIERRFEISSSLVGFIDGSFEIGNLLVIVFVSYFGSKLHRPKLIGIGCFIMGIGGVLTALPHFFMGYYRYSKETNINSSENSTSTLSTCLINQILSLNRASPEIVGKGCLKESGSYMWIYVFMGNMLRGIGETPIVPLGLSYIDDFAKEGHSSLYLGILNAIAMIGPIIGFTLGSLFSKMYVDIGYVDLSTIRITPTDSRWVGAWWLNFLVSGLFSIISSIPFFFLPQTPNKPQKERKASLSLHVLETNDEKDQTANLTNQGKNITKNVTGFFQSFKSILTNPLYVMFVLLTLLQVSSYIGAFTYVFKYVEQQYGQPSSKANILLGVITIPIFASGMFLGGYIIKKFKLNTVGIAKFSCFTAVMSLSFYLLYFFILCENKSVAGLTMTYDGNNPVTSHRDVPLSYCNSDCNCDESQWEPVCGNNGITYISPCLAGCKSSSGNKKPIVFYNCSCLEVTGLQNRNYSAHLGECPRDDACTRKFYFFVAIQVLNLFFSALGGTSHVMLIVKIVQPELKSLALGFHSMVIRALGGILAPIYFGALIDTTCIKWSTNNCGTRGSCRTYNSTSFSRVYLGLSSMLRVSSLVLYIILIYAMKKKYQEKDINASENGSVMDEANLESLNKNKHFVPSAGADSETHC
# What was measured:
# Assay type in all cases: functional, cell-based
# [1] = molecular target: T1, Solute carrier organic anion transporter family member 1B1; experiment: TP_TRANSPORTER: inhibition of E217betaG uptake (E217betaG: 0.5 uM, Saquinavir: 100 uM) in OATP-C-expressing HeLa cells
# [2] = molecular target: T1, Solute carrier organic anion transporter family member 1B1; experiment: TP_TRANSPORTER: inhibition of E217betaG uptake (E217betaG: 0.5 uM, Nelfinavir: 10 uM) in OATP-C-expressing HeLa cells
# [3] = molecular target: T1, Solute carrier organic anion transporter family member 1B1; experiment: TP_TRANSPORTER: inhibition of E217betaG uptake (E217betaG: 0.5 uM, BSP: 10 uM) in OATP-C-expressing HeLa cells
# [4] = molecular target: T1, Solute carrier organic anion transporter family member 1B1; experiment: TP_TRANSPORTER: inhibition of E217betaG uptake (E217betaG: 0.5 uM, Rifampicin: 10 uM) in OATP-C-expressing HeLa cells
# [5] = molecular target: T1, Solute carrier organic anion transporter family member 1B1; experiment: TP_TRANSPORTER: inhibition of E217betaG uptake (E217betaG: 0.5 uM, Hyperforin: 10 uM) in OATP-C-expressing HeLa cells
# [6] = molecular target: T1, Solute carrier organic anion transporter family member 1B1; experiment: TP_TRANSPORTER: inhibition of E217betaG uptake (E217betaG: 0.5 uM, Indinavir: 10 uM) in OATP-C-expressing HeLa cells
# [7] = substrate: CO[C@H]1/C=C/O[C@@]2(C)Oc3c(C)c(O)c4c(O)c(c(/C=N/N5CCN(C)CC5)c(O)c4c3C2=O)NC(=O)/C(C)=C\C=C\[C@H](C)[C@H](O)[C@@H](C)[C@@H](O)[C@@H](C)[C@H](OC(C)=O)[C@@H]1C; experiment: TP_TRANSPORTER: uptake in OATP-C-expressing HeLa cells
molecule,measurement,setting,value
CC(C)(C)NC(=O)[C@@H]1C[C@@H]2CCCC[C@@H]2CN1C[C@@H](O)[C@H](Cc1ccccc1)NC(=O)[C@H](CC(N)=O)NC(=O)c1ccc2ccccc2n1,Activity,[1],inhibitor [(at a rough estimate) 10 % of control]
Cc1c(O)cccc1C(=O)N[C@@H](CSc1ccccc1)[C@H](O)CN1C[C@H]2CCCC[C@H]2C[C@H]1C(=O)NC(C)(C)C,Activity,[2],inhibitor [(at a rough estimate) 15 % of control]
O=C1OC(c2ccc(O)c(S(=O)(=O)[O-])c2)(c2ccc(O)c(S(=O)(=O)[O-])c2)c2c(Br)c(Br)c(Br)c(Br)c21.[Na+].[Na+] [SULFOBROMOPHTHALEIN SODIUM],Activity,[3],inhibitor [(at a rough estimate) <5 % of control]
CO[C@H]1/C=C/O[C@@]2(C)Oc3c(C)c(O)c4c(O)c(c(/C=N/N5CCN(C)CC5)c(O)c4c3C2=O)NC(=O)/C(C)=C\C=C\[C@H](C)[C@H](O)[C@@H](C)[C@@H](O)[C@@H](C)[C@H](OC(C)=O)[C@@H]1C [RIFAMPIN],Activity,[4],inhibitor [(at a rough estimate) 10 % of control]
CC(C)=CCC[C@]1(C)[C@@H](CC=C(C)C)C[C@]2(CC=C(C)C)C(=O)C(CC=C(C)C)=C(O)[C@@]1(C(=O)C(C)C)C2=O,Activity,[5],inhibitor [(at a rough estimate) 10 % of control]
CC(C)(C)NC(=O)[C@@H]1CN(Cc2cccnc2)CCN1C[C@@H](O)C[C@@H](Cc1ccccc1)C(=O)N[C@H]1c2ccccc2C[C@H]1O.O,Activity,[6],inhibitor [(at a rough estimate) 35 % of control]
Solute carrier organic anion transporter family member 1B1 (Homo sapiens) (protein) MDQNQHLNKTAEAQPSENKKTRYCNGLKMFLAALSLSFIAKTLGAIIMKSSIIHIERRFEISSSLVGFIDGSFEIGNLLVIVFVSYFGSKLHRPKLIGIGCFIMGIGGVLTALPHFFMGYYRYSKETNINSSENSTSTLSTCLINQILSLNRASPEIVGKGCLKESGSYMWIYVFMGNMLRGIGETPIVPLGLSYIDDFAKEGHSSLYLGILNAIAMIGPIIGFTLGSLFSKMYVDIGYVDLSTIRITPTDSRWVGAWWLNFLVSGLFSIISSIPFFFLPQTPNKPQKERKASLSLHVLETNDEKDQTANLTNQGKNITKNVTGFFQSFKSILTNPLYVMFVLLTLLQVSSYIGAFTYVFKYVEQQYGQPSSKANILLGVITIPIFASGMFLGGYIIKKFKLNTVGIAKFSCFTAVMSLSFYLLYFFILCENKSVAGLTMTYDGNNPVTSHRDVPLSYCNSDCNCDESQWEPVCGNNGITYISPCLAGCKSSSGNKKPIVFYNCSCLEVTGLQNRNYSAHLGECPRDDACTRKFYFFVAIQVLNLFFSALGGTSHVMLIVKIVQPELKSLALGFHSMVIRALGGILAPIYFGALIDTTCIKWSTNNCGTRGSCRTYNSTSFSRVYLGLSSMLRVSSLVLYIILIYAMKKKYQEKDINASENGSVMDEANLESLNKNKHFVPSAGADSETHC,Km,[7],1.5 µM
